Where “and” joins values, the source holds several entries; their conditions need not be identical. Identical values can stand only once.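 Briefly, cells in 96-well plates were exposed to five compound concentrations for 48 h, and endpoints were estimated by linear interpolation. GI50 marks 50% less growth. The concentration for full growth arrest is given as TGI.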
Columns and labels:
Experiment in all cases: NCI tumour cell line growth inhibition, 48 h
SK-OV-3 ovarian = test system: SK-OV-3 ovarian
HCT-116 colon = test system: HCT-116 colon
HT29 colon = test system: HT29 colon
HCT-15 colon = test system: HCT-15 colon
EKVX NSCLC = test system: EKVX NSCLC
SF-539 CNS = test system: SF-539 CNS
UO-31 renal = test system: UO-31 renal
U251 CNS = test system: U251 CNS
CAKI-1 renal = test system: CAKI-1 renal
SK-MEL-28 melanoma = test system: SK-MEL-28 melanoma

OC(c1ccccc1Br)(c1ccccc1Br)C(F)(F)F
TGI (SK-OV-3 ovarian): > 100 µM
TGI (HCT-116 colon): 39.4 µM
TGI (HT29 colon): 38.3 µM
TGI (HCT-15 colon): > 100 µM
TGI (EKVX NSCLC): > 100 µM
TGI (SF-539 CNS): > 100 µM
TGI (UO-31 renal): 75.1 µM
TGI (U251 CNS): 34.3 µM
TGI (CAKI-1 renal): > 100 µM
TGI (SK-MEL-28 melanoma): 95.5 µM

CC[C@H](C)[C@H](NC(=O)[C@H]1CCCCN1C)C(=O)N(C)[C@H](C[C@@H](OC(C)=O)c1nc(C(=O)NC23CC(C(=O)OC)(C2)C3)cs1)C(C)C
GI50 (SK-OV-3 ovarian): 0.0022 µM and 0.00357 µM
TGI (SK-OV-3 ovarian): > 32.5 µM
GI50 (HCT-116 colon): 0.000878 µM and 0.00325 µM
TGI (HCT-116 colon): > 32.5 µM
GI50 (HT29 colon): 0.000433 µM and 0.00325 µM
TGI (HT29 colon): 0.0103 µM and 0.011 µM
GI50 (HCT-15 colon): 0.00333 µM and 0.00325 µM
TGI (HCT-15 colon): > 32.5 µM
GI50 (EKVX NSCLC): 0.0475 µM and 0.0175 µM
TGI (EKVX NSCLC): > 32.5 µM
GI50 (SF-539 CNS): 0.000553 µM and 0.00325 µM
TGI (SF-539 CNS): 0.00779 µM and 0.00601 µM
GI50 (UO-31 renal): 0.0109 µM and 0.00564 µM
TGI (UO-31 renal): > 32.5 µM
GI50 (U251 CNS): 0.00083 µM and 0.00325 µM
TGI (U251 CNS): > 32.5 µM
GI50 (CAKI-1 renal): 0.00485 µM
TGI (SK-MEL-28 melanoma): > 32.5 µM

CCO/C=C1\SC(=S)N(c2ccc(OCC)cc2)C1=O
TGI (SK-OV-3 ovarian): > 100 µM
TGI (HCT-116 colon): > 100 µM
TGI (HT29 colon): > 100 µM
TGI (HCT-15 colon): > 100 µM
TGI (EKVX NSCLC): > 100 µM
TGI (SF-539 CNS): > 100 µM
TGI (UO-31 renal): > 100 µM
TGI (U251 CNS): > 100 µM
TGI (CAKI-1 renal): > 100 µM
TGI (SK-MEL-28 melanoma): > 100 µM

CCCCCC(=O)O[C@]1(C(C)=O)CCC2C3CCC4=CC(=O)CC[C@]4(C)C3CC[C@@]21C (some centres not stated)
GI50 (SK-OV-3 ovarian): 3.25 µM
TGI (SK-OV-3 ovarian): 13.3 µM
GI50 (HCT-116 colon): 1.75 µM
TGI (HCT-116 colon): 4.23 µM
GI50 (HT29 colon): 2.59 µM
TGI (HT29 colon): 7.88 µM
GI50 (HCT-15 colon): 3.22 µM
TGI (HCT-15 colon): 12.6 µM
GI50 (EKVX NSCLC): 2.91 µM
TGI (EKVX NSCLC): 20.2 µM
GI50 (SF-539 CNS): 2.94 µM
TGI (SF-539 CNS): 8.31 µM
GI50 (UO-31 renal): 1.93 µM
TGI (UO-31 renal): 10.3 µM
GI50 (U251 CNS): 1.78 µM
TGI (U251 CNS): 4.15 µM
GI50 (CAKI-1 renal): 1.75 µM
TGI (CAKI-1 renal): 8.22 µM
GI50 (SK-MEL-28 melanoma): 2.49 µM
TGI (SK-MEL-28 melanoma): 6.82 µM

O=C(CCCC(=O)Nc1ccc(Cl)cc1Cl)CC(=O)c1ccc2ccccc2c1
TGI (SK-OV-3 ovarian): > 100 µM
TGI (HCT-116 colon): > 100 µM
TGI (HT29 colon): > 100 µM
TGI (HCT-15 colon): > 100 µM
TGI (EKVX NSCLC): > 100 µM
TGI (SF-539 CNS): > 100 µM
TGI (UO-31 renal): > 100 µM
TGI (U251 CNS): > 100 µM
TGI (CAKI-1 renal): > 100 µM
TGI (SK-MEL-28 melanoma): > 100 µM

O=C(c1cccs1)c1c(C(F)(F)F)n([O-])c2cc(Cl)c(Cl)cc2[n+]1=O
GI50 (SK-OV-3 ovarian): 2.18 µM
TGI (SK-OV-3 ovarian): 4.04 µM
GI50 (HCT-116 colon): 0.429 µM
TGI (HCT-116 colon): 0.913 µM
GI50 (HT29 colon): 0.405 µM
TGI (HT29 colon): > 100 µM
GI50 (HCT-15 colon): 0.286 µM
TGI (HCT-15 colon): 0.808 µM
GI50 (EKVX NSCLC): 2.11 µM
TGI (EKVX NSCLC): 4.04 µM
GI50 (SF-539 CNS): 0.719 µM
TGI (SF-539 CNS): 1.94 µM
GI50 (UO-31 renal): 1.9 µM
TGI (UO-31 renal): 4.14 µM
GI50 (U251 CNS): 0.269 µM
TGI (U251 CNS): 1.66 µM
GI50 (CAKI-1 renal): 1.53 µM
TGI (CAKI-1 renal): 2.92 µM
GI50 (SK-MEL-28 melanoma): 1.88 µM
TGI (SK-MEL-28 melanoma): 4.61 µM

c1ccc(C(c2ccccc2)c2ccccn2)cc1
TGI (SK-OV-3 ovarian): > 100 µM
TGI (HCT-116 colon): > 100 µM
TGI (HT29 colon): > 100 µM
TGI (HCT-15 colon): > 100 µM
TGI (EKVX NSCLC): > 100 µM
TGI (SF-539 CNS): > 100 µM
TGI (UO-31 renal): > 100 µM
TGI (U251 CNS): > 100 µM
TGI (CAKI-1 renal): > 100 µM
TGI (SK-MEL-28 melanoma): > 100 µM

CCOC(=O)C1=C(NC)OCC1=O
TGI (SK-OV-3 ovarian): > 100 µM
TGI (HCT-116 colon): > 100 µM
TGI (HT29 colon): > 100 µM
TGI (HCT-15 colon): > 100 µM
TGI (EKVX NSCLC): > 100 µM
TGI (SF-539 CNS): > 100 µM
TGI (UO-31 renal): > 100 µM
TGI (U251 CNS): > 100 µM
TGI (CAKI-1 renal): > 100 µM
TGI (SK-MEL-28 melanoma): > 100 µM

COc1cc2nnc3c4cccnc4[nH]c3c2cc1OC
GI50 (SK-OV-3 ovarian): 8.47 µM and 2.29 µM
TGI (SK-OV-3 ovarian): 36 µM and 9.24 µM
GI50 (HCT-116 colon): 0.292 µM and 0.127 µM
GI50 (HT29 colon): 1.81 µM and 1.34 µM
GI50 (HCT-15 colon): 2.3 µM and 1.43 µM
GI50 (EKVX NSCLC): 3.39 µM and 2.43 µM
TGI (EKVX NSCLC): 50 µM and 8 µM
GI50 (SF-539 CNS): 2.79 µM and 1.73 µM
TGI (SF-539 CNS): 11.4 µM and 3.52 µM
GI50 (UO-31 renal): 1.52 µM and 0.486 µM
TGI (UO-31 renal): 10.9 µM and 2.66 µM
GI50 (U251 CNS): 1.66 µM and 0.918 µM
GI50 (CAKI-1 renal): 1.17 µM and 0.184 µM
GI50 (SK-MEL-28 melanoma): 18.8 µM and 4.49 µM
TGI (SK-MEL-28 melanoma): 50 µM and > 100 µM

Cc1ccc(S(=O)(=O)NCCCCC(N)C(=O)O)cc1 (configuration not stated)
TGI (SK-OV-3 ovarian): > 100 µM
TGI (HCT-116 colon): > 100 µM
TGI (HT29 colon): > 100 µM
TGI (HCT-15 colon): > 100 µM
TGI (EKVX NSCLC): > 100 µM
TGI (SF-539 CNS): > 100 µM
TGI (UO-31 renal): > 100 µM
TGI (U251 CNS): > 100 µM
TGI (CAKI-1 renal): > 100 µM
TGI (SK-MEL-28 melanoma): > 100 µM

O=C(COc1ccc(/C=C2\Oc3ccccc3C2=O)cc1)Nc1nc2ccccc2s1
GI50 (SK-OV-3 ovarian): 61.7 µM
TGI (SK-OV-3 ovarian): > 100 µM
GI50 (HCT-116 colon): 19.3 µM
TGI (HCT-116 colon): > 100 µM
GI50 (HT29 colon): 23.6 µM
TGI (HT29 colon): > 100 µM
GI50 (HCT-15 colon): 33.8 µM
TGI (HCT-15 colon): > 100 µM
GI50 (EKVX NSCLC): 26.5 µM
TGI (EKVX NSCLC): > 100 µM
GI50 (SF-539 CNS): 3.16 µM
TGI (SF-539 CNS): > 100 µM
GI50 (UO-31 renal): 13 µM
TGI (UO-31 renal): > 57.6 µM
GI50 (U251 CNS): 6.35 µM
TGI (U251 CNS): > 100 µM
GI50 (CAKI-1 renal): 1.79 µM
GI50 (SK-MEL-28 melanoma): 37.5 µM
TGI (SK-MEL-28 melanoma): > 100 µM

Nc1nc(=S)c2ncn(C3OC(COP(=O)(O)O)C(O)C3O)c2[nH]1 (configuration not stated)
GI50 (SK-OV-3 ovarian): 0.471 µM
TGI (SK-OV-3 ovarian): 5.09 µM
GI50 (HCT-116 colon): 0.5 µM
TGI (HCT-116 colon): > 100 µM
GI50 (HT29 colon): 1.2 µM
TGI (HT29 colon): > 100 µM
GI50 (HCT-15 colon): 1.72 µM
TGI (HCT-15 colon): > 100 µM
GI50 (EKVX NSCLC): 2.34 µM
TGI (EKVX NSCLC): > 100 µM
GI50 (SF-539 CNS): 2.32 µM
TGI (SF-539 CNS): > 100 µM
GI50 (UO-31 renal): 1.98 µM
TGI (UO-31 renal): > 100 µM
GI50 (U251 CNS): 8.08 µM
TGI (U251 CNS): > 100 µM
GI50 (CAKI-1 renal): 0.544 µM
TGI (CAKI-1 renal): > 100 µM
GI50 (SK-MEL-28 melanoma): 6.57 µM
TGI (SK-MEL-28 melanoma): > 100 µM
